Test results taken from ChEMBL document CHEMBL1201862, “PubChem BioAssay data set” (2004).
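Briefly, cells in 96-well plates were exposed to five compound concentrations for 48 h, and endpoints were estimated by linear interpolation. GI50 marks 50% less growth.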 Activity calls are given as the source filed them. Cut-off read from the data, not from the text of the source: active = GI50 up to about 1.1 µM and inactive = higher.

Legend:
Test in all cases: inhibition of tumour cell growth, NCI panel, 48 h
HCT-116 = test system: HCT-116
M14 = test system: M14
786-0 = test system: 786-0
RPMI-8226 = test system: RPMI-8226
IGROV-1 = test system: IGROV-1
SF-268 = test system: SF-268
T47D = test system: T47D
NCI/ADR-RES = test system: NCI/ADR-RES
LOX IMVI = test system: LOX IMVI
HCT-15 = test system: HCT-15
NCI-H522 = test system: NCI-H522
SNB-19 = test system: SNB-19
SK-MEL-28 = test system: SK-MEL-28
HT-29 = test system: HT-29
OVCAR-8 = test system: OVCAR-8
SK-OV-3 = test system: SK-OV-3
EKVX = test system: EKVX
HL-60 = test system: HL-60
SW-620 = test system: SW-620
MDA-N = test system: MDA-N
OVCAR-5 = test system: OVCAR-5
BT-549 = test system: BT-549
COLO 205 = test system: COLO 205
OVCAR-3 = test system: OVCAR-3
NCI-H226 = test system: NCI-H226
KM12 = test system: KM12
HOP-62 = test system: HOP-62
MDA-MB-435 = test system: MDA-MB-435
SR = test system: SR
MCF7 = test system: MCF7
CAKI-1 = test system: CAKI-1
A498 = test system: A498
UACC-62 = test system: UACC-62
OVCAR-4 = test system: OVCAR-4
Malme-3M = test system: Malme-3M
MDA-MB-231 = test system: MDA-MB-231
PC-3 = test system: PC-3
SK-MEL-2 = test system: SK-MEL-2
TK-10 = test system: TK-10
UACC-257 = test system: UACC-257
DU-145 = test system: DU-145
SNB-75 = test system: SNB-75
UO-31 = test system: UO-31
ACHN = test system: ACHN
HOP-92 = test system: HOP-92
NCI-H460 = test system: NCI-H460
Hs-578T = test system: Hs-578T
MOLT-4 = test system: MOLT-4
SN12C = test system: SN12C
SF-295 = test system: SF-295
SF-539 = test system: SF-539
U-251 = test system: U-251
RXF 393 = test system: RXF 393
CCRF-CEM = test system: CCRF-CEM
SK-MEL-5 = test system: SK-MEL-5
K562 = test system: K562
A549 = test system: A549
NCI-H23 = test system: NCI-H23
HCC 2998 = test system: HCC 2998

Compound: Cc1cc(Cc2cc(C)cc(C(C)(C)C)c2O)c(O)c(Cc2cc(C)cc(C(C)(C)C)c2O)c1
- GI50 (HCT-116): 1.92 µM (inactive)
- GI50 (M14): 2.64 µM (inactive)
- GI50 (786-0): 3.15 µM (inactive)
- GI50 (RPMI-8226): 0.724 µM (active)
- GI50 (IGROV-1): 3.25 µM (inactive)
- GI50 (SF-268): 1.7 µM (inactive)
- GI50 (T47D): 3.01 µM (inactive)
- GI50 (NCI/ADR-RES): 2.85 µM (inactive)
- GI50 (LOX IMVI): 3.1 µM (inactive)
- GI50 (HCT-15): 2.24 µM
- GI50 (NCI-H522): 0.931 µM (active)
- GI50 (SNB-19): 4.11 µM (inactive)
- GI50 (SK-MEL-28): 4.14 µM (inactive)
- GI50 (HT-29): 2.55 µM (inactive)
- GI50 (OVCAR-8): 2.75 µM (inactive)
- GI50 (SK-OV-3): 3.33 µM (inactive)
- GI50 (EKVX): 2.82 µM (inactive)
- GI50 (HL-60): 2.51 µM (inactive)
- GI50 (SW-620): 3.34 µM (inactive)
- GI50 (MDA-N): 3.66 µM (inactive)
- GI50 (OVCAR-5): 3.48 µM (inactive)
- GI50 (BT-549): 1.87 µM (inactive)
- GI50 (COLO 205): 4.53 µM (inactive)
- GI50 (OVCAR-3): 2.69 µM (inactive)
- GI50 (NCI-H226): 3.24 µM (inactive)
- GI50 (KM12): 2.91 µM (inactive)
- GI50 (HOP-62): 2.88 µM (inactive)
- GI50 (MDA-MB-435): 3.12 µM (inactive)
- GI50 (SR): 2.54 µM (inactive)
- GI50 (MCF7): 2.34 µM (inactive)
- GI50 (CAKI-1): 4.08 µM (inactive)
- GI50 (A498): 2.39 µM (inactive)
- GI50 (UACC-62): 1.86 µM (inactive)
- GI50 (OVCAR-4): 4.05 µM (inactive)
- GI50 (Malme-3M): 2 µM (inactive)
- GI50 (MDA-MB-231): 1.79 µM (inactive)
- GI50 (PC-3): 2.75 µM (inactive)
- GI50 (SK-MEL-2): 2.16 µM (inactive)
- GI50 (TK-10): 3.03 µM (inactive)
- GI50 (UACC-257): 2.29 µM (inactive)
- GI50 (DU-145): 3.4 µM (inactive)
- GI50 (SNB-75): 4.62 µM (inactive)
- GI50 (UO-31): 2.98 µM (inactive)
- GI50 (ACHN): 3.37 µM (inactive)
- GI50 (HOP-92): 2.24 µM (inactive)
- GI50 (NCI-H460): 1.57 µM (inactive)
- GI50 (Hs-578T): 1.67 µM (inactive)
- GI50 (MOLT-4): 1.41 µM (inactive)
- GI50 (SN12C): 2.34 µM (inactive)
- GI50 (SF-295): 3.18 µM (inactive)
- GI50 (SF-539): 2.51 µM (inactive)
- GI50 (U-251): 2.7 µM (inactive)
- GI50 (RXF 393): 2.82 µM (inactive)
- GI50 (CCRF-CEM): 1.73 µM (inactive)
- GI50 (SK-MEL-5): 1.08 µM (active)
- GI50 (K562): 0.931 µM (active)
- GI50 (A549): 3.06 µM (inactive)
- GI50 (NCI-H23): 1.66 µM (inactive)

Compound: CSc1c(C(=O)Nc2ccc(C)cc2)c(N)n(N)c(=O)c1C#N
- GI50 (HCT-116): > 100 µM (inactive)
- GI50 (M14): > 100 µM (inactive)
- GI50 (786-0): > 100 µM (inactive)
- GI50 (RPMI-8226): > 100 µM (inactive)
- GI50 (IGROV-1): > 100 µM (inactive)
- GI50 (SF-268): > 100 µM (inactive)
- GI50 (T47D): > 100 µM (inactive)
- GI50 (NCI/ADR-RES): > 100 µM (inactive)
- GI50 (LOX IMVI): > 100 µM (inactive)
- GI50 (HCT-15): > 100 µM
- GI50 (NCI-H522): > 100 µM (inactive)
- GI50 (SNB-19): > 100 µM (inactive)
- GI50 (SK-MEL-28): > 100 µM (inactive)
- GI50 (HT-29): > 100 µM (inactive)
- GI50 (OVCAR-8): > 100 µM (inactive)
- GI50 (SK-OV-3): > 100 µM (inactive)
- GI50 (EKVX): > 100 µM (inactive)
- GI50 (HL-60): > 100 µM (inactive)
- GI50 (SW-620): > 100 µM (inactive)
- GI50 (MDA-N): > 100 µM (inactive)
- GI50 (OVCAR-5): > 100 µM (inactive)
- GI50 (BT-549): > 100 µM (inactive)
- GI50 (COLO 205): > 100 µM (inactive)
- GI50 (OVCAR-3): > 100 µM (inactive)
- GI50 (NCI-H226): > 100 µM (inactive)
- GI50 (KM12): > 100 µM (inactive)
- GI50 (MDA-MB-435): > 100 µM (inactive)
- GI50 (SR): > 100 µM (inactive)
- GI50 (MCF7): > 100 µM (inactive)
- GI50 (HCC 2998): > 100 µM (inactive)
- GI50 (CAKI-1): > 100 µM (inactive)
- GI50 (A498): > 100 µM (inactive)
- GI50 (UACC-62): > 100 µM (inactive)
- GI50 (OVCAR-4): > 100 µM (inactive)
- GI50 (Malme-3M): > 100 µM (inactive)
- GI50 (MDA-MB-231): > 100 µM (inactive)
- GI50 (PC-3): > 100 µM (inactive)
- GI50 (SK-MEL-2): > 100 µM (inactive)
- GI50 (TK-10): > 100 µM (inactive)
- GI50 (UACC-257): > 100 µM (inactive)
- GI50 (DU-145): > 100 µM (inactive)
- GI50 (SNB-75): > 100 µM (inactive)
- GI50 (UO-31): 60.1 µM (inactive)
- GI50 (NCI-H460): > 100 µM (inactive)
- GI50 (Hs-578T): > 100 µM (inactive)
- GI50 (MOLT-4): > 100 µM (inactive)
- GI50 (SN12C): > 100 µM (inactive)
- GI50 (SF-539): > 100 µM (inactive)
- GI50 (U-251): > 100 µM (inactive)
- GI50 (RXF 393): > 100 µM (inactive)
- GI50 (CCRF-CEM): > 100 µM (inactive)
- GI50 (SK-MEL-5): > 100 µM (inactive)
- GI50 (K562): > 100 µM (inactive)
- GI50 (A549): > 100 µM (inactive)
- GI50 (NCI-H23): > 100 µM (inactive)
